Key:
Type in all cases: cell-based, human
[1] = system: STAT3 phosphorylation (Y705); test: Western blot of STAT3 phosphorylation in ALDH+ cells; settings: LLL12 5 µmol/L or Stattic 10 µmol/L 24 hours, ShRNA 48 hours then puromycin
Method: (§1) The ALDEFLUOR kit (StemCell Technologies) was used to isolate the population with high ALDH enzymatic activity as previously described. Briefly, cells were trypsinized to single cells using 0.05% trypsin and subsequently suspended in ALDEFLUOR assay buffer containing ALDH substrate (BAAA, 1 µmol/l per 1×10^6 cells) and then incubated for 40 minutes at 37°C. For each sample, an aliquot of cells was stained under identical conditions with 15 mmol/L diethylaminobenzaldehyde (DEAB), a specific ALDH inhibitor, as an ALDH^− control. Anti-human PE-CD24 and PE-Cy5-CD44 antibody (BioLegend) were used for CD44/CD24 identification and to separate ALDH^+/CD44^+/CD24^− and ALDH^−/CD44^+/CD24^+ cells when combined with ALDH staining. Analysis was performed using a FACStarPLUS (Becton Dickinion) flow cytometer. To assess the effect of STAT3 inhibitors on the subpopulation of ALDH^+ cells, un-separated breast cancer cells were treated with 5 µmol/L of LLL12 or 10 µmol/L Stattic for 24 hours prior to performing the ALDEFLUOR assay.
After sorting by flow cytometry, ALDH^+ and ALDH^+/CD44^+/CD24^− stem-like cells were cultured in serum-free stem cell medium in ultra-low attachment six-well plates (Corning) to maintain cancer stem cell characteristics. […]

ERK1/2 phosphorylation = ERK1/2 phosphorylation in ALDH+ cells; settings: ALDH+ breast cancer stem-like cells; 10 µmol/L, 24 hours
Method: After sorting by flow cytometry, ALDH^+ and ALDH^+/CD44^+/CD24^− stem-like cells were cultured in serum-free stem cell medium in ultra-low attachment six-well plates (Corning) to maintain cancer stem cell characteristics. ALDH^−, ALDH^−/CD44^+/CD24^+cells and un-separated cells were cultured in regular medium and replaced with identical stem cell medium for three days before being harvested. To assess the effects of STAT3 inhibitors, ALDH^+ and ALDH^+/CD44^+/CD24^− subpopulations of breast cancer cells were treated with LLL12 (5 µmol/L) of or static (10 µmol/L) for 24 hours. STAT3, or control GFP shRNA lentivirus (CTL ShRNA) was introduced into ALDH^+ breast cancer stem-like cells for 48 hours, then followed by selection with puromycin (0.2 µg/ml) for 72 hours. Antibodies (Cell Signaling Tech.) against phospho-specific STAT3 (Tyrosine 705) (P-STAT3, Y705), ERK1/2 (Threonine 202/Tyrosine 204), cleaved Poly (ADP-ribose) polymerase (PARP), ALDH1, cleaved caspase-3, and GAPDH were used for western blots.

[2] = system: ALDH+ subpopulation in MDA-MB-231, SUM159, and SK-BR3 cancer cells; test: ALDEFLUOR assay, percentage of ALDH+ subpopulation; settings: un-separated MDA-MB-231, SUM159, SK-BR3; LLL12 5 µmol/L or Stattic 10 µM, 24 hours
Method: as §1

[3] = system: ALDH+ subpopulation from MDA-MB-231, SUM159, and SK-BR3 cells; test: MTT cell viability assay, ALDH+ subpopulation; settings: 1 to 10 µmol/L 72 hours, ShRNA 48 hours
Method: (§2) The breast cancer cells were seeded in 96-well plates (3,000 cells/well) in triplicates in a serum-free mammary epithelial basal medium. The following day, cancer cells were treated with 1 to 10 µmol/L of LLL12 or Stattic for 72 hours, STAT3 ShRNA or control GFP shRNA lentivirus (CTL ShRNA) for 48 hours. MTT (Thiazolyl Blue Tetrazolium Bromide, Sigma-Aldrich) assay was used to determine the cell viability.

ALDH− cells = test: MTT cell viability assay, ALDH− subpopulation; settings: Figure S4
Method: as §2

[4] = system: ALDH+ subpopulations of SK-BR-3, MDA-MB-231, and SUM159; test: Tumorsphere formation, ALDH+ subpopulations; settings: 2.5–10 µmol/L, 10 to 15 days
Method: ALDH^+ and ALDH^+/CD44^+/CD24^− cells were plated as single cells in ultra-low attachment six-well plates at a density of 250, 500, 1000 or 50,000 viable cells/well as previously described. On the second day after seeding, the ALDH^+ cancer cells were treated with 2.5–10 µmol/L of LLL12 or Stattic. For tumorsphere forming capacity assay, ALDH^+ or ALDH^− cells were plated as single cells in ultra-low attachment six-well plates at a density of 250, 500 or 1000 viable cells/well. Tumorsphere growth was observed under a microscope 10 to 15 days later.

Q: `O=[N+]([O-])c1ccc2c(c1)S(=O)(=O)C=C2` [Stattic, reference compound] was tested. Which “STAT3 phosphorylation in ALDH+ cells” value [1] did it give?
A: Its value is “reduced”.

Q: And the ERK1/2 phosphorylation (ERK1/2 phosphorylation)?
A: The ERK1/2 phosphorylation was “not”.

Q: What about the “ALDH+ subpopulation (percentage)” value [2] of the same molecule?
A: The value was “decreased”.

Q: And the “cell viability of the ALDH+ subpopulation” value [3]?
A: Its value is “inhibit”.

Q: And the “effects against the ALDH− cells (cell viability)” value (ALDH− cells)?
A: The value was “some inhibitory effects”.

Q: What about the tumorsphere formation [4] of the same molecule?
A: The tumorsphere formation was “suppress”.

From PMC3871589, “Evaluation of STAT3 Signaling in ALDH+ and ALDH+/CD44+/CD24− Subpopulations of Breast Cancer Cells” (PLoS ONE, 2013)
